Publication PMC8750417, “Intracellular Amplifiers of Reactive Oxygen Species Affecting Mitochondria as Radiosensitizers” (Cancers, 2021)

Tested on: Jurkat cells
Assay: Total intracellular ROS (CM-DCFH-DA), Jurkat
Format: cell-based, human
Conditions: 1 h
Description: Monitoring total intracellular ROS (tROS)
A2780 cells were seeded in RPMI 1640 medium containing 5% FBS, 1% L-glutamine and 1% penicillin/streptomycin in a 24-well microtiter plate (total volume 0.5 mL) at a density of 200 cells/µL one day before the experiment. On the day of the experiment, the cells were washed twice with DPBS buffer and the medium was replaced with HBSS (Hanks' Balanced Salt solution, 500 μL). CM-DCFH-DA (5-(6-)chloromethyl-2',7'- dichlorodihydrofluorescein diacetate, Thermo- Fisher) solution (0.1 mM in DMSO, 5 μL) was added (final concentration 1 µM) and the cells were incubated in the dark chamber filled with CO2 (5%) at 37 °C for 15 min. […] Finally, the fluorescence of live cells (λex = 488 nm, λem = 525 nm) in the suspensions was determined by using flow cytometry (Figure 4A, 5C).
Intracellular ROS release in Jurkat cells was monitored analogously (Figure S58).
Figure S58. […] OY-axis “Fluorescence”: the increase of the mean fluorescence (λex = 488 […]

## CC1(C)OB(c2ccc(COC(=O)N(Cc3cn(Cc4ccc(Cn5cc(Cc6ccccc6)nn5)cc4)nn3)[c-]3cccc3)cc2)OC1(C)C.[Fe+2].c1cc[cH-]c1 [2c]
  total ROS (tROS) vs background: significantly higher than its background levels
